The first test concerns SU-DHL-4 cells. Nature of the test: Inhibitory effect on cell viability in SU-DHL-4 cell line (Test Example 1). The test is classed as cell-based, human. As to conditions: Homo sapiens; SU-DHL-4 cells, 72 hours, Cell Counting Kit-8; concentration showing 90% inhibition of cell viability; read-out: SU-DHL-4 Cell Viability Inhibition Rate IC90. In outline:
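SU-DHL-4 cells were grown at 37° C. under 5% CO2 in RPMI1640 with 10 vol % heat-inactivated FBS plus penicillin/streptomycin, seeded and precultured for 18 to 25 hours, then exposed to test compound at 0.1 vol % DMSO for 72 hours. Viability was read with Cell Counting Kit-8 by absorbance at 450 nm.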
(In general: Tetrazolium dyes change colour on reduction, which living cells bring about.)
One may read the IC90 as the concentration needed for an effect of 90%. Consider `CCC(=O)N1c2ccccc2[C@H](Nc2ccc(NC(=O)C3CN(C(=O)c4ccc(C5CCN(c6ccc7nnc(Cl)n7n6)CC5)cc4)C3)cc2)C[C@@H]1C` [Compound 17p, 1-(4-(1-(3-Chloro-[1,2,4]triazolo[4,3-b]pyridazin-6-yl)piperidin-4-yl)benzoyl)-N-(4-(((2S,4R)-2-methyl-1-propionyl-1,2,3,4-tetrahydroquinolin-4-yl)amino)phenyl)azetidine-3-carboxamide], for which the IC90 worked out at 0.35 nM. For the compound `CCC(=O)N1c2ccccc2[C@H](Nc2ccc(NC(=O)CCCC(=O)NC34CCC(NCc5cc(O)cc(-c6c(C)noc6C)c5)(CC3)CC4)cc2)C[C@@H]1C` [Compound 17c, N^1-(4-((3-(3,5-Dimethylisoxazol-4-yl)-5-hydroxybenzyl)amino)bicyclo[2.2.2]octan-1-yl)-N5-(4-(((2S,4R)-2-methyl-1-propionyl-1,2,3,4-tetrahydroquinolin-4-yl)amino)phenyl)glutaramide], the IC90 came to 2.05 nM.

The same test, now with this note: SU-DHL-4 cells, 72 hours, Cell Counting Kit-8; concentration showing 90% inhibition of cell viability; read-out: SU-DHL-4 Cell Viability Inhibition Rate IC90.
Take `CCC(=O)N1c2ccccc2[C@H](Nc2ccc(NC(=O)c3cccc(NC(=O)c4ccc(N[C@@H]5C[C@H](C)N(C(=O)CC)c6ccccc65)cc4)c3)cc2)C[C@@H]1C` (relative stereo) [Compound 2j, 3-(4-{[(2S,4R)-2-Methyl-1-propionyl-1,2,3,4-tetrahydroquinolin-4-yl]amino}benzamide)-N-(4-{[(2S*,4R*)-2-methyl-1-propionyl-1,2,3,4-tetrahydroquinolin-4-yl]amino}phenyl)benzamide]: the IC90 worked out at 0.36 nM. Regarding `CCC(=O)N1c2ccccc2[C@H](Nc2ccc(Cn3cc(C(=O)N[C@H]4CC[C@H](N[C@@H]5C[C@H](C)N(C(=O)CC)c6ccccc65)CC4)nn3)cc2)C[C@@H]1C` [Compound 8f, 1-(4-(((2S,4R)-2-Methyl-1-propionyl-1,2,3,4-tetrahydroquinolin-4-yl)amino)benzyl)-N-((1R,4R)-4-(((2S,4R)-2-methyl-1-propionyl-1,2,3,4-tetrahydroquinolin-4-yl)amino)cyclohexyl)-1H-1,2,3-triazole-4-carboxamide], the IC90 is 1.14 nM. Still for that read-out and setting: in the case of `Cc1sc2c(c1C)C(c1ccc(C(=O)NC3CCN(C(=O)c4ccc(C5=N[C@@H](CC(=O)OC(C)(C)C)c6nnc(C)n6-c6sc(C)c(C)c65)cc4)CC3)cc1)=N[C@@H](CC(=O)OC(C)(C)C)c1nnc(C)n1-2` [Compound 1i, tert-Butyl 2-((S)-4-{4-[4-(4-{(S)-6-[2-(tert-butoxy)-2-oxoethyl]-2,3,9-trimethyl-6H-thieno[3,2-f][1,2,4]triazolo[4,3-a][1,4]diazepin-4-yl}benzamide)piperidine-1-carbonyl]phenyl}-2,3,9-trimethyl-6H-thieno[3,2-f][1,2,4]triazolo[4,3-a][1,4]diazepin-6-yl)acetate] it was 0.54 nM; in that of `CCC(=O)N1c2ccccc2[C@H](Nc2ccc(-n3cc(CNC(=O)c4cccc(Oc5ccc(NS(=O)(=O)CC)cc5-c5cn(C)c(=O)cc5OC)c4)nn3)cc2)C[C@@H]1C` [Compound 16n, 3-(4-(Ethylsulfonamide)-2-(4-methoxy-1-methyl-6-oxo-1,6-dihydropyridin-3-yl)phenoxy)-N-((1-(4-(((2S,4R)-2-methyl-1-propionyl-1,2,3,4-tetrahydroquinolin-4-yl)amino)phenyl)-1H-1,2,3-triazol-4-yl)methyl)benzamide], 0.48 nM. For `CCC(=O)N1c2ccccc2[C@H](Nc2ccc(C(=O)NCCCNC(=O)c3ccc(Cn4c(C(=O)OCCN(C)C)cc5c4CCCC5=O)cc3)cc2)C[C@@H]1C` [Compound 15e, 2-(Dimethylamino)ethyl 1-(4-((3-(4-(((2S,4R)-2-methyl-1-propionyl-1,2,3,4-tetrahydroquinolin-4-yl)amino)benzamide)propyl)carbamoyl)benzyl)-4-oxo-4,5,6,7-tetrahydro-1H-indole-2-carboxylate], the IC90 was determined as 34 nM.

Source of the values: patent US20220378923A1, “BET DEGRADER” (KYOWA KIRIN CO., LTD., priority 2019, published 2022).
